Test results as given in paper PMC10791743, “Selective CK1α degraders exert antiproliferative activity against a broad range of human cancer cell lines” (Nature Communications, 2024).
Where “and” joins values, the source holds several entries; their conditions need not be identical. Equal entries are not always repeated.

Assay: Plasma stability assay, mouse
Format: in vitro ADME
Conditions: for Calculated Concentration: 0h standards set to Actual Concentration 100, IS warfarin, replicates
Method: page 32: Aldrich, Saint Louis, MO) were diluted into 0.1 M potassium phosphate buffer (PBS, pH 7.4, KH2PO4, Cat. No: P284-500; K2HPO4, Cat. No: BP363-500, Fisher Scientific, Fair Lawn, NJ) and mixed well. 40 μL of this solution was transferred into the above compounds plates. For the time 0 plate, 3 fold (v:v) cold acetonitrile with warfarin (400 ng/mL) as the internal standard was added to […] and B in PBS, pH 7.4) and no incubation. For the other five time points’ plates, 10 μL NADPH regenerating agent mixer was added to each well to initiate the reaction, the plate was sealed and incubated at 37° C on an orbital shaker (100 rpm) for the required time, followed by quenching of the reaction by adding 3-fold volume of cold acetonitrile with internal standard to each well. The final concentration of each component applied in this reaction was liver microsome protein at 0.5 […] After quenching, all plates were securely sealed and thoroughly mixed at 600 rpm for 10 minutes. Subsequently, centrifugation was performed at 4000 rpm for 20 minutes. The resulting supernatants […] analysis using UPLC–MS/MS. The assessment of metabolic stability involved determining the half- life through a least-squares fit of multiple time points, employing first-order kinetics. Plasma stability assay5: The degradation of human or mouse plasma was assessed by monitoring the gradual reduction of the parent compound over specified time intervals (0, 3, 24, and 48 hours). Human and mouse plasma samples were sourced from GeneTex (Irvine, CA). Test compound stock solutions, prepared at 10 mM in DMSO, were dispensed into triplicate wells of a 96-well microplate using the Labcyte Echo 650 dispenser. For plates, excluding the time 0-hour plate, plasma was […] The plate was sealed, incubated at 37°C on an orbital shaker (100 rpm) for the required duration, and then quenched with cold acetonitrile, incorporating warfarin as the internal standard. In the case of the time 0-hour plate, cold acetonitrile with the internal standard was added to each well before introducing plasma, eliminating page 33: the need for further incubation. Following quenching, all plates were thoroughly mixed at 600 rpm for 10 minutes and centrifuged at 4000 rpm for 20 minutes. Supernatants were transferred to […] MS/MS analysis. Plasma stability was evaluated by determining the half-life through a least-squares fit of multiple time points based on first-order kinetics. Plasma protein binding assay: Test compound stock solutions were prepared at a concentration of 10 mM in DMSO. A Single-Use RED (Rapid Equilibrium Dialysis) device was acquired from Thermo Scientific (Cat. No: 99006, Rockford, IL). The sample preparation for plasma protein binding followed a modified version of Waters' method6. After thawing, plasma was centrifuged at 1000 rpm for 10 minutes to eliminate any particulates. Each compound was then prepared at a concentration of 10 µM in either human or mouse plasma. In the plasma protein binding assessment, 300 µL of spiked plasma solutions were introduced into the sample chamber (indicated by the red ring), while 550 µL of DPBS was added to the adjacent chamber. The plate was sealed and incubated at 37°C on an orbital shaker (100 rpm) for 4 hours. Post -incubation, 50 µL aliquots were withdrawn from each side of the insert and dispensed into a 96 -well storage plate. To create analytically identical sample matrices (matrix matching), an equivalent volume of blank plasma or DPBS was added to the necessary wells, followed by quenching w ith 3-fold (v:v) cold acetonitrile containing warfarin as the internal standard. Subsequently, the sealed plates were well -mixed at 600 rpm for 10 minutes and then centrifuged at 4000 rpm for 20 minutes. Supernatants were transferred to analytical […] Test compound concentrations were quantified in both the buffer and plasma chambers by determining peak areas relative to the internal standard. […]

[1] = mouse plasma, regression of log concentration over time points 0, 3, 24, 48 h

Compound	Plasma stability (mouse)	Calculated Concentration (mouse plasma, time point 3h)	Calculated Concentration (mouse plasma, time point 24h)	Calculated Concentration (mouse plasma, time point 48h)	Ke [1]	t(1/2) [1]
O=C1CCC(N2Cc3cc(Nc4noc5ccccc45)ccc3C2=O)C(=O)N1 (stereo not drawn) [SJ3149]	> 10 h					
O=C1CCC(N2Cc3cc(Nc4noc5ccccc45)ccc3C2=O)C(=O)N1 (stereo not drawn) [SJ001043149-1]		89.527 and 94.878 and 96.383	48.667 and 48.995 and 51.103	26.458 and 25.987 and 26.969	0.028	24.7479
